We go through three compounds from patent publication US11351151B2, “Compound having anticancer activity and preparation method and application” (3D Medicines (Beijing) Co., Ltd., priority 2016, dated 2022).

Each structure is given as a SMILES string. pIC50: −log10 of the molar value. Where “and” joins values, the source holds several entries; their conditions need not be identical. Equal values may be shown once. Entries after “also recorded” stand apart in the source; their conditions may differ.

Data set [1] can be described thus: Plasma incubation stability study. The class given is in vitro ADME, SD rat. Conditions: for Residual intermediate: rat plasma, 37° C., 2 μg/mL added, listed as intermediate. As to the method:
(§1) The purpose of this example was to investigate the stability of the precursor Linifanib-C12-AA5 (compound 8) and the intermediate Linifanib-C12-Asp (compound 12) in plasma, liver homogenate and spleen homogenate (precursor Linifanib-C12-AA5 metabolizes into the intermediates Linifanib-C12-Asp and Linifanib; the intermediate Linifanib-C12-Asp is further metabolized to form Linifanib), and the metabolites were analyzed quantitatively, and the stability of the incubation system was verified with positive drugs, providing references for compound drug evaluation.
• Instrument: AP13000 LC/MS, ABI • Materials: Male SD rats (200-250 g), Beijing Vital River • Test samples: positive drugs and their metabolites M1 and M2, Linifanib-C12-AA5 and its metabolites Linifanib-C12-ASP and Linifanib. 2. Stability study of Linifanib-C12-AA5 and Linifanib-C12-Asp • 2.1 Linifanib-C12-AA5 and Linifanib-C12-Asp plasma incubation stability study protocol Test animal • Type: SD rat; Quantity: 2 • Sex: male; weight: 200-250 g;
(§2) Experimental Procedure • 1. Animal blood was collected, blood samples were placed in EDTA anticoagulation tubes, centrifuged at 3000 g for 15 min at 4° C., plasma was separated, and 2 blood samples were mixed in equal volumes; • 2. Weighed and dissolved a certain amount of Linifanib-C12-AA5/Linifanib-C12-Asp in DMSO:MeOH (2:8), prepared 200 μM mother liquor by purity, and added the compound to the plasma to a final concentration of 2 μg/mL. The organic ratio in the system was not more than 0.5%. • 3. Incubated in a 37° C. water bath and set the sampling points to 0, 0.5, 1, 2, 4, 6, and 8 h. At each sampling point, 100 μL of each sample was added to 300 μL of acetonitrile (with internal standard) for precipitation, centrifuged at 12,000 rpm for 5 min, and 200 μL of supernatant was taken for analysis by LC-MS/MS. • 4. Configured the standard curve to quantify Linifanib, Linifanib-C12-Asp and residual Linifanib-C12-AA5. • 2.2 Linifanib-C12-AA5 and Linifanib-C12-Asp liver/spleen homogenate incubation stability study protocol Test animal • Type: SD rat; Quantity: 2 • Sex: Male; Weight: 200-250 g

Data set [2] in a line: Spleen homogenate incubation stability study. The format is in vitro ADME, SD rat. The procedure:
as §1, §2
Experimental Procedure • 1. Biological analysis method: established the biological analysis method of the compound Linifanib-C12-Asp and Linifanib; • 2. Rat liver/spleen was taken on the day of the experiment, two pieces were cut and mixed, and homogenized with 4 volumes (1 g: 4 mL) phosphate buffer (pH 7.4), and the temperature was controlled to not exceed 10° C. in the homogenization process; quantitative detection of protein, and controlled liver and spleen protein concentration. • 3. Added the drug Linifanib-C12-AA5, Linifanib-C12-Asp to the liver/spleen homogenate to a concentration of 1000 ng/mL, the incubation volume was 1 mL, and controlled the concentration of the organic solvent in the incubation system to not exceed 0.5%. • 4. Incubated in a 37° C. water bath and took 100 μL of samples at 0, 0.5, 1, 2, 4, 6, and 8 h, respectively. After pre-processing the samples with a definite method, the LC-MS/MS analysis was carried out. • 5. Prepared a standard curve with blank liver/spleen homogenate to quantify Linifanib-C12-Asp and Linifanib. 3. Stability Study Results

Data set [3] has as its system 26 liver cancer cell lines. As to the kind of experiment: Cell proliferation assay (Alamar Blue), summary over liver cancer lines. The class given is cell-based. The procedure: 1. Instruments and Materials • Thermo 311 CO2 incubator; Haier biosafety cabinet; Molecular Devices microplate reader; Xiangyi brand L530 desktop low speed centrifuge; Olympus IX51 inverted fluorescence microscope, DMEM, RPMI 1640, MEM, DMEM/F12 1:1 medium, Fetal bovine serum, 0.25% trypsin solution, phosphate buffer (Thermo Fisher Shanghai Co., Ltd.); sigma dimethyl sulfoxide (DMSO), resazurin; 54 commercial tumor cell lines (including 26 liver cancer cell lines). Experimental drugs: compounds 1-12 and active drug Linifanib; chemotherapeutic drug Doxorubicin (HY-15142; Shanghai Qianyuan Biomedical Technology Co., Ltd.).
2. […] The proportion and quantity of passage were determined by experimental needs. The ratio of subculture of this cell line was generally 1:2^˜1:3. • 2.2 inhibition effect on the proliferation of different tumor cell lines • Cell test: 54 cell lines in logarithmic growth phase were inoculated in 96-well culture plates at 500^˜1×10^4/well (the optimal seeding density of each cell line was determined in pre-experiment), After incubating at 37° C. for 4 h in a 5% CO2 humidification incubator, added 10 μL of compounds 1-12 or Linifanib to each well, and tested 9 drug concentration gradients for each compound (diluted from the highest concentration of the test by 3.16 times). […]
A general note: The colour change of resazurin is a common sign of viable cells or microbes.

For data set [4] the following is noted: liver cancer patients, phase III; cited from earlier work.
Where [5] appears, read: rat plasma incubation up to 8 h.

Take `Cc1ccc(F)c(NC(=O)Nc2ccc(-c3cccc4c3c(N)nn4C(=O)CCCCCCCCCCCNC(=O)C[C@H](N)C(=O)O)cc2)c1` [Compound 12]: the “level of Linifanib produced in plasma” value in data set [1] (setting [5]) was “close to zero”. Further, the stability in plasma entry in data set [1] (rat plasma incubation up to 8 h, listed as Linifanib-C12-Asp) was “stably incubated in plasma; also recorded: stable in plasma”. For the same compound, the Residual intermediate was 1900 ng/mL and 2180 ng/mL in data set [1] (0 h); 2100 ng/mL and 2290 ng/mL in data set [1] (0.5 h); 2180 ng/mL and 2290 ng/mL in data set [1] (1 h); 2160 ng/mL and 2110 ng/mL in data set [1] (2 h); 2210 ng/mL and 2270 ng/mL in data set [1] (4 h); 2070 ng/mL and 1880 ng/mL in data set [1] (6 h). Also, the Residual intermediate in data set [1] (8 h) is 1940 ng/mL and 2060 ng/mL; in data set [2] (first experiment, 1000 ng/mL added, 0 h, listed as intermediate) it was 900 ng/mL and 1020 ng/mL; in data set [2] (first experiment, 1000 ng/mL added, 0.5 h), 959 ng/mL; in data set [2] (first experiment, 1000 ng/mL added, 2 h, listed as intermediate), 755 ng/mL and 681 ng/mL; in data set [2] (first experiment, 1000 ng/mL added, 4 h, listed as intermediate), 610 ng/mL and 589 ng/mL; in data set [2] (first experiment, 1000 ng/mL added, 6 h, listed as intermediate) it was 470 ng/mL and 467 ng/mL. The Residual intermediate in data set [2] (first experiment, 1000 ng/mL added, 8 h, listed as intermediate) was 499 ng/mL and 506 ng/mL; in data set [2] (second experiment, 0 h, listed as intermediate), 812 ng/mL and 844 ng/mL; in data set [2] (second experiment, 0.5 h, listed as intermediate), 770 ng/mL and 744 ng/mL; in data set [2] (second experiment, 6 h, listed as intermediate), 496 ng/mL and 483 ng/mL.

`Cc1ccc(F)c(NC(=O)Nc2ccc(-c3cccc4c3c(N)nn4C(=O)CCCCCCCCCCCNC(=O)C[C@H](N)C(=O)N[C@@H](CCC(=O)N[C@@H](CCC(=O)N[C@@H](CCC(=O)N[C@@H](CCC(=O)O)C(=O)O)C(=O)O)C(=O)O)C(=O)O)cc2)c1` [Compound 8]: the “difference of IC50 values versus Linifanib” value in data set [3] (most of the liver cancer cell lines (15/26, 58%)) was “more than 8 times”. In data set [1] (setting [5]), the “production of the intermediates Linifanib-C12-Asp and Linifanib in plasma” value is “did not produce”; the stability in plasma entry is “stable in plasma”.

Turning to `Cc1ccc(F)c(NC(=O)Nc2ccc(-c3cccc4[nH]nc(N)c34)cc2)c1` [Linifanib, reference compound], in data set [4], the “toxicity and side effects” value was “greater than Sorafenib”. Further, the negative-log IC50 (pIC50) in data set [3] (nearly half of the liver cancer cell lines (12/26, 46%), moderately sensitive) is over 5.30.

As a reminder, the pIC50 is the negative decadic logarithm of the IC50, by convention in mol/L.
